Values after ≈ are worked out from the molar mass of the structure shown.
Legend:
[1] = test system: right ventricular papillary muscle of guinea-pig; test: Cardiotonic action in isolated, electrically paced, right ventricular papillary muscle; assay type: cell-based; conditions: for EC50: cardiotonic effect, guinea-pig papillary muscle, normal Tyrode's bath solution
Protocol: Cardiotonic action of the (-) and (+) enantiomers of [[4-(1,4,5,6-tetrahydro-4-methyl-6-oxo-3-pyridazinyl)phenyl]hydrazono]propanedinitrile (I) was studied in isolated, electrically paced, right ventricular papillary muscle of guinea-pig. Experiments were carried out in normal Tyrode's bath solution as described by Otani et al., Japan.

[2] = LD50 given intravenously to rats; conditions: rat, in vivo, intravenous
[3] = Bioavailability: concentration of total drug in dog plasma after single dose oral administration; assay type: in vivo
Protocol: FIG. 1 is a graph depicting the concentration of total [[4-(1,4,5,6-tetrahydro-4-methyl-6-oxo-3-pyridazinyl)phenyl]hydrazono]propanedinitrile in dog plasma over time after single dose oral administration of the racemate and the (-) enantiomer.
Concentration of total [[4-(1,4,5,6-tetrahydro-4-methyl-6-oxo-3-pyridazinyl)phenyl]hydrazono]propanedinitrile in dog plasma after single dose oral administration of the racemate (1 mg/kg) and (-)-enantiomer (0.5 mg/kg) is shown in FIG. 1. Curve A is for the (-)-enantiomer and curve B is for the racemic [[4-(1,4,5,6-tetrahydro-4-methyl-6-oxo-3-pyridazinyl)phenyl]hydrazono]propanedinitrile.

[4] = Water solubility in 67 mM phosphate buffer (pH 2); assay type: physicochemical
Protocol: The water solubility of (-) enantiomer and racemic mixture of
[[4-(1,4,5,6-tetrahydro-4-methyl-6-oxo-3-pyridazinyl)phenyl]-
hydrazono]propanedinitrite (l) in 67 mM phosphate buffer (pH 2).

Compound | EC50 [1] [nM] | LD50 [2] [mg/kg] | dose needed to produce the same plasma concentration level of the total drug substance, compared to racemate ([3]; dog, single dose oral, racemate 1 mg/kg, (-)-enantiomer 0.5 mg/kg, FIG. 1) | bioavailability compared to racemate ([3]; result in words) | solubility ([4]; aqueous buffer, water solubility, 67 mM phosphate buffer (pH 2)) [µg/mL] | water solubility of the (-) enantiomer compared to the racemate ([4]; ratio (-) enantiomer / racemate) | potency of (-) enantiomer relative to (+) enantiomer ([1]; cardiotonic, ratio (-) vs (+) enantiomer) [times] | cardiotonic potency ([1]; result in words)
CC1CC(=O)NN=C1c1ccc(NN=C(C#N)C#N)cc1 (single isomer, unassigned; (+)) [(+), (+)-[[4-(1,4,5,6-Tetrahydro-4-Methyl-6-Oxo-3-Pyridazinyl)phenyl]Hydrazono]Propanedinitrile] | 2800 | – | – | – | – | – | – | –
CC1CC(=O)NN=C1c1ccc(NN=C(C#N)C#N)cc1 (single isomer, unassigned; (-)) [(-) enantiomer, (-)-[[4-(1,4,5,6-Tetrahydro-4-Methyl-6-Oxo-3-Pyridazinyl)phenyl]Hydrazono]Propanedinitrile] | 60 | 57 | less than half dose is needed to produce the same plasma concentration level of the total drug substance | superior compared to racemate | 29 (≈ 103 µM) | over 30 fold | 47 | cardiotonic potency is predominantly due to the optically active (-) enantiomer

Source: patent US5424428A, “( -)-[[4-(1,4,5,6-tetrahydro-4-methyl-6-oxo-3-pyridazinyl)phenyl]-hydrazono]p r” (Orion-yhtyma Oy, priority 1991, dated 1995)
